Experimental data as given in publication PMC2900060, “Antioxidant and hepatoprotective effects of the methanol extract of the leaves of Satureja macrostema” (Pharmacognosy Magazine, 2010).
Converted amounts (≈) assume the structure as drawn.

Assays:
[1] = Iron-chelating activity (ferrozine); settings: Fe2+-ferrozine, Table 2
Experimental: After 5 min incubation, the reaction was initiated by 1.0 ml of 5.0 mM ferrozine. After 10 min of equilibrium, the absorbance at 562 nm was recorded. The controls contained all reaction reagents except extracts or positive control substance. Three experiments were performed and the average result was adopted. The iron-chelating activities were calculated from the absorbance of the control (Ac) and of the sample (As) using the following equation: Inhibition(%) = Ac −As × 100 Ac

[2] = Inhibition of DPPH radical; settings: concentration 100 μg/ml (table head prints mg/ml for SM)
Experimental: The free radical scavenging activity of the extract was analyzed by the DPPH (1,1-- diphenyl-- 2--picryl hydrazyl) assay.[10] A total of 2 ml of the test extract, at concentrations ranging from 1 μg/ml to 100 μg/ml each, was mixed with 1 ml of 0.5 mM DPPH (in methanol). The absorbance at 517 nm was taken after 30 min of incubation in the dark at room temperature. The experiment was done in triplicate. The percentage antioxidant activity was calculated as follows: %Antioxidant Activity [AA] = l00 --[ { (Abssample -- Absblank) X 100 }/Abs ml of methanol plus 2.0 ml of the extract was used as the blank while 1.0 ml of the 0.3 mM DPPH solution plus 2.0 ml of methanol was used as the negative control. Ascorbic acid was used as the reference standard.

[3] = Inhibition of nitric oxide radical (sodium nitroprusside, Griess reaction); settings: concentration 50 μg/ml
Experimental: Nitric oxide generated from sodium nitroprusside in aqueous solution at physiological pH interacts with oxygen to produce nitrite ions, which were measured by the Griess reaction.[1213] The reaction mixture (3 ml) containing sodium nitroprusside (10 Mm) in phosphate buffered saline (PES) and SM and the reference compound in different concentrations (5, 10, 25, 50 and 100 μg) were incubated at 25°C for 150 min. In each 30 min, 0.5 ml of the incubated sample was removed and 0.5 ml of the Griess reagent (1% sulfanilamide, 0.1% naphthyl ethylene diamine dihydrochloride in 2% H3PO4) was added. The absorbance of the chromophore formed was measured at 546 nm. All the tests were performed in triplicate and the results were averaged. BHT was used as the reference compound. All the tests were performed in triplicate and the results were averaged. The percentage decrease in absorbance was calculated.[10] Quercetine was used as the standard.

[4] = Inhibition of superoxide anion radical (NBT/NADH/PMS); settings: concentration 50 μg/ml
Experimental: Measurement of superoxide anion scavenging activity of SM was performed based on the method described by […][11] and slightly modified. About 1 ml of nitroblue tetrazolium (NBT) solution containing 156 μM NBT which is dissolved in 1.0 ml of phosphate buffer (100 mM, pH 7.4), 1 ml of NADH solution containing 468 μM of NADH which is dissolved in 1 ml of phosphate buffer (100 mM, pH 7.4) and 0.1 ml of various concentrations of SM and the reference compounds (5, 10, 25, 50 and 100 μg) were mixed and the reaction started by adding l00 μl of phenazine methosulphate (PMS) solution containing 60 μM of PMS l00 μl of phosphate buffer (100 mM, pH 7.4). The reaction mixture was incubated at 25°C for 5 min and the absorbance at 560 nm was measured against the control samples. All the tests were performed in triplicate and the results were averaged. The percentage decrease in absorbance was calculated.[10] Quercetine was used as the standard.

Compound | IC50 Ion-chelating [1] [mg/mL] | DPPH scavenging [2] [%] | DPPH scavenging ([2]; listed as ascorbic acid) [%] | Nitric oxide scavenging [3] [%] | Superoxide anion scavenging [4] [%]
Cc1cc(C(C)(C)C)c(O)c(C(C)(C)C)c1 [BHT] | 46.6 (≈ 211 mM) | – | – | – | –
O=C1O[C@H]([C@@H](O)CO)C(O)=C1O [Ascorbic acid] | 49.3 (≈ 280 mM) | 97 ± 0.52 | 97 | – | –
O=c1c(O)c(-c2ccc(O)c(O)c2)oc2cc(O)cc(O)c12 [Quercetin] | – | – | – | 93.8 ± 0.98 | 90.87 ± 0.43
